Values quoted from earlier work, collected in patent US11229596B2, “Preservative free pharmaceutical ophthalmic compositions” (PHARMATHEN S.A., priority 2016, dated 2022).
Where a name gives a salt, the structure may show the parent alone. Read-outs that look alike come from different tables or passages of the source.

Key:
intraocular pressure = details: in man

| Solubility (in acetonitrile) | Solubility (in ethanol) | Solubility (in water) | Solubility (in chloroform) | Solubility (in cyclohexane) | Solubility (in ether) | Solubility (in methanol) | Solubility (in propylene glycol) | Compound | Duration of pressure reduction (intraocular pressure) | Start of reduction of the intraocular pressure after administration (intraocular pressure) | Time to maximum effect on intraocular pressure (intraocular pressure) |
| --- | --- | --- | --- | --- | --- | --- | --- | --- | --- | --- | --- |
| very soluble | freely soluble | practically insoluble | – | – | – | – | – | CC(C)OC(=O)CCC/C=C\C[C@@H]1[C@@H](CC[C@@H](O)CCc2ccccc2)[C@H](O)C[C@@H]1O [Latanoprost] | at least 24 hours | three to four | eight to twelve |
| – | soluble | soluble | sparingly soluble | insoluble | insoluble | soluble | sparingly soluble | CC(C)(C)NC[C@H](O)COc1nsnc1N1CCOCC1 [Timolol maleate] | – | – | – |
